Test results as given in US20240092770A1, “Heterocycle RMB39 Modulators” (Recursion Pharmaceuticals, Inc., priority 2022, published 2024).

These compounds were tested against RBM39 and the DCAF15 complex (RBM39-Flag / His-DCAF15-DDA1-DDB1) (Homo sapiens (Human), UniProt Q14498+Q66K64) (assay: DCAF15 RBM39 complex formation TR-FRET assay). Settings: RBM39(R150-D331) 3xFlag 50 nM, His-DCAF15-DDA1-DDB1 10 nM, 60 min room temperature.
Format: binding
Experimental: A TR-FRET assay was used to assess the effect of compounds disclosed herein on the interaction between RBM39 and the DCAF15 complex. Test compounds were dissolved to form a 10 mM DMSO stock solution. A 45 μL aliquot of the stock solution was transferred to a 384 pp-plate, and a threefold, 8-point dilution was performed via transferring 15 μL compound solution into 30 μL of DMSO. The plates were then spun at room temperature at 1,000 RPM for 1 minute.
A 30 nL aliquot of the diluted compound was transferred to a 384 well plate, which was incubated at room temperature for 15 minutes. Next, Solutions 1, 2, and 3 were prepared as described in the below tables. A 5 μL aliquot of Solution 2 was added to each well, followed by 5 μL of Solution 3 to start the reaction. The final volume of each well was 10 μL. The plates were incubated at room temperature for 60 minutes, and then read.
Next, an RBM39 (R150-D331) 3× Flag used in TR-FRET assay was prepared:
Recombinant RBM39 protein is composed of the R1R2 of RBM39 (aa 150 to 331; UniProt: Q14498). The coding sequence was sub-cloned into pGEX4T-1-RBM39-flag vector, expressed as a GST-fusion protein with N-terminal TEV protease cleavage site. A 3× Flag tag was added to the C-terminal of R1R2 used in a FRET assay.
Work on `CC(C)c1cc(S(=O)(=O)Nc2cccc3c(C#N)c[nH]c23)on1` [Compound 138] yielded an EC50 of 0.423 µM.
`CCc1nc(S(=O)(=O)Nc2ccc(C)c3c(C#N)c[nH]c23)cn1CC(=O)NC1CC1` [Compound 139] gave an EC50 of 6.07 µM.
`CCc1nc(S(=O)(=O)Nc2ccc(C)c3c(C#N)c[nH]c23)cn1CC(=O)O` [Compound 140] gave an EC50 of 6.62 µM.
In the case of `Cc1ccc(NS(=O)(=O)c2ncc(C(N)=O)s2)c2[nH]cc(C#N)c12` [Compound 141], the EC50 is reported as 0.919 µM.
With `COCCNC(=O)c1cnc(S(=O)(=O)Nc2ccc(C)c3c(C#N)c[nH]c23)s1` [Compound 142] the EC50 was 1.96 µM.
In the case of `Cc1ccc(NS(=O)(=O)c2ncc(C(=O)N3CCC(O)C3)s2)c2[nH]cc(C#N)c12` (stereo not drawn) [Compound 143], the EC50 is reported as 2.15 µM.
In the case of `Cc1ccc(NS(=O)(=O)c2ncc(C(=O)N3CCCCC3)s2)c2[nH]cc(C#N)c12` [Compound 144], the EC50 is reported as 1.56 µM.
In the case of `CCc1nc(S(=O)(=O)Nc2ccc(F)c3c(Cl)c[nH]c23)c[nH]1` [Compound 146], the EC50 is reported as 0.505 µM.
For `CCc1nc(S(=O)(=O)Nc2ccc(F)c3c(C#N)c[nH]c23)c[nH]1` [Compound 147], the EC50 was 2.03 µM.
`N#Cc1c[nH]c2c(NS(=O)(=O)c3nc(C(F)(F)F)cs3)ccc(F)c12` [Compound 148] was tested, and the EC50 was 1.31 µM.
In the case of `O=S(=O)(Nc1cc(F)cc2c(Cl)c[nH]c12)c1nc(C(F)(F)F)cs1` [Compound 149], the EC50 is reported as 0.897 µM.
`N#Cc1c[nH]c2c(NS(=O)(=O)c3nc(C(F)(F)F)cs3)cc(F)cc12` [Compound 150] was tested, and the EC50 was 1.25 µM.
Work on `O=S(=O)(Nc1cccc2c(Cl)c[nH]c12)c1nc(C(F)(F)F)cs1` [Compound 151] yielded an EC50 of 0.344 µM.
`Cc1nc(S(=O)(=O)Nc2ccc(C)c3c(C#N)c[nH]c23)cs1` [Compound 152] was tested, and the EC50 was 0.281 µM.
With `Cc1nc(S(=O)(=O)Nc2cccc3c(C#N)c[nH]c23)cs1` [Compound 153] the EC50 was 0.941 µM.
In the case of `CCc1nc(S(=O)(=O)Nc2cc(F)cc3c(C#N)c[nH]c23)c[nH]1` [Compound 157], the EC50 is reported as 1.84 µM.
Work on `CCc1nc(S(=O)(=O)Nc2cccc3c(Cl)c[nH]c23)c[nH]1` [Compound 158] yielded an EC50 of 0.433 µM.
`O=S(=O)(Nc1ccc(F)c2c(Cl)c[nH]c12)c1nc(C(F)(F)F)cs1` [Compound 159, N-(3-chloro-4-fluoro-1H-indol-7-yl)-4-(trifluoromethyl)-1,3-thiazole-2-sulfonamide] was tested, and the EC50 was 0.45 µM.
Work on `Cc1nc(S(=O)(=O)Nc2cccc3c(C#N)c[nH]c23)sc1C` [Compound 160] yielded an EC50 of 0.673 µM.
`Cc1ccc(NS(=O)(=O)c2cn(CC(C)C)cn2)c2[nH]cc(C#N)c12` [Compound 161] showed an EC50 of 0.978 µM.
`CCCn1cnc(S(=O)(=O)Nc2ccc(C)c3c(C#N)c[nH]c23)c1` [Compound 162] gave an EC50 of 0.591 µM.
Work on `N#Cc1c[nH]c2c(NS(=O)(=O)c3nc(Cl)cs3)ccc(F)c12` [Compound 163] yielded an EC50 of 0.893 µM.
`O=S(=O)(Nc1cccc2c(C(F)(F)F)c[nH]c12)c1nccs1` [Compound 185] was tested, and the EC50 was 1.01 µM.
`O=S(=O)(Nc1cccc2c(C(F)(F)F)c[nH]c12)c1cncs1` [Compound 186] gave an EC50 of 0.258 µM.
For `O=S(=O)(Nc1ccc(F)c2c(Cl)c[nH]c12)c1cncs1` [Compound 187], the EC50 was 0.228 µM.
Work on `Cc1ccc(NS(=O)(=O)c2cncs2)c2[nH]cc(C(F)(F)F)c12` [Compound 198] yielded an EC50 of 0.047 µM.
`N#Cc1c[nH]c2c(NS(=O)(=O)c3cncs3)ccc(F)c12` [Compound 199] showed an EC50 of 0.964 µM.
For `Cc1ncc(S(=O)(=O)Nc2cccc3c(Cl)c[nH]c23)s1` [Compound 200], the EC50 was 0.207 µM.
`Cc1ncc(S(=O)(=O)Nc2ccc(F)c3c(C#N)c[nH]c23)s1` [Compound 201] gave an EC50 of 0.391 µM.
With `CC(C)(O)c1ncc(S(=O)(=O)Nc2cccc3c(C#N)c[nH]c23)s1` [Compound 202] the EC50 was 0.241 µM.
In the case of `O=S(=O)(Nc1cccc2c(Cl)c[nH]c12)c1cncs1` [Compound 203], the EC50 is reported as 0.583 µM.
With `O=S(=O)(Nc1cccc2c(Cl)c[nH]c12)c1cnc(C(F)F)s1` [Compound 204] the EC50 was 0.13 µM.
In the case of `N#Cc1c[nH]c2c(NS(=O)(=O)c3cnc(N4CCOCC4)s3)cccc12` [Compound 205], the EC50 is reported as 0.632 µM.
`N#Cc1c[nH]c2c(NS(=O)(=O)c3cnsc3)cccc12` [Compound 215] showed an EC50 of 0.42 µM.
Compound `N#Cc1c[nH]c2c(NS(=O)(=O)c3cnsn3)cccc12` [Compound 254] has an EC50 of 3.92 µM.
For `N#Cc1c[nH]c2c(NS(=O)(=O)c3cnns3)cccc12` [Compound 255], the EC50 was 1.16 µM.
